ChEMBL document CHEMBL4382198, “Discovery of Risdiplam, a Selective Survival of Motor Neuron-2 ( SMN2) Gene Splicing Modifier for the Treatment of Spinal Muscular Atrophy (SMA)” (J Med Chem, 2018)
Blank lines part the entries; values can stand above or below the compound they belong to.

Experiments:
[1] = in vivo; settings: rat
[2] = physchem
[3] = organism: Homo sapiens; experiment: Activation of human full length SMN2 mRNA expressed in human SMA-derived fibroblasts by RT-qPCR analysis
[4] = molecular target: Survival motor neuron protein (Homo sapiens) (UniProt Q16637); experiment: Activation of SMN protein in human SMA-derived fibroblasts after 48 hrs by HTRF assay
Chain of Survival motor neuron protein (Homo sapiens) (Q16637 whole entry): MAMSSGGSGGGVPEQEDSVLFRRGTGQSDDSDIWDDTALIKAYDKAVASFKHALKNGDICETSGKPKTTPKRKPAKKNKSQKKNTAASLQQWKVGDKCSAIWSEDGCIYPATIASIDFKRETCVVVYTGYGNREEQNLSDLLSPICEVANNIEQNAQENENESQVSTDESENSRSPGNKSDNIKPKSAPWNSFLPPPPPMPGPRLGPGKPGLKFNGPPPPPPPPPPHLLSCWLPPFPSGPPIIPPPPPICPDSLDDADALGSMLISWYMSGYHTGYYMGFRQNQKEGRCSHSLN

[5] = Effect on human FOXM1b/c mRNA splicing expressed in human SMA-derived fibroblasts by RT-qPCR analysis; format: ADME
[6] = Drug metabolism in po dosed rat plasma assessed as dealkylated 2-(4-ethyl-6-methylpyrazolo[1,5-a]pyrazin-2-yl)-9-methyl-7-(piperidin-4-yl)-4H-pyrido[1,2-a]pyrimidin-4-one metabolite formation; format: ADME, organism-based; settings: in vivo
[7] = Drug metabolism in po dosed mouse plasma assessed as dealkylated 2-(4-ethyl-6-methylpyrazolo[1,5-a]pyrazin-2-yl)-9-methyl-7-(piperidin-4-yl)-4H-pyrido[1,2-a]pyrimidin-4-one metabolite formation; format: ADME, organism-based; settings: in vivo
[8] = Efflux ratio of permeability in human SMA-derived fibroblasts; format: ADME, cell-based, Fibroblast; settings: not told
[9] = Drug metabolism in po dosed cynomolgus monkey plasma assessed as dealkylated 2-(4-ethyl-6-methylpyrazolo[1,5-a]pyrazin-2-yl)-9-methyl-7-(piperidin-4-yl)-4H-pyrido[1,2-a]pyrimidin-4-one metabolite formation; format: ADME, organism-based, Macaca fascicularis; settings: in vivo
[10] = Efflux ratio of permeability in mouse 3T3 cells; format: ADME, cell-based, NIH3T3
[11] = Tmax in human; format: ADME
[12] = Terminal half life in human; format: ADME; settings: read-out: beta t1/2 (converted)
[13] = organism: Homo sapiens; experiment: Modulation of human SMN2 mRNAsplicing expressed in HEK293H cells by qRT-PCR analysis; format: cell-based
[14] = Effect on human FOXM1a mRNA splicing expressed in human SMA-derived fibroblasts by RT-qPCR analysis; format: ADME
[15] = Effect on FOXM1b/c mRNA splicing in human induced pluripotent stem cells by RT-qPCR analysis; format: ADME
[16] = Effect on FOXM1b/c mRNA splicing in cynomolgus monkey induced pluripotent stem cells by RT-qPCR analysis; format: ADME, Macaca fascicularis
[17] = molecular target: Voltage-gated inwardly rectifying potassium channel KCNH2 (Homo sapiens, UniProt Q12809); experiment: (§1) Inhibition of human ERG at 37 degC
Chain of Voltage-gated inwardly rectifying potassium channel KCNH2 (Q12809 whole entry): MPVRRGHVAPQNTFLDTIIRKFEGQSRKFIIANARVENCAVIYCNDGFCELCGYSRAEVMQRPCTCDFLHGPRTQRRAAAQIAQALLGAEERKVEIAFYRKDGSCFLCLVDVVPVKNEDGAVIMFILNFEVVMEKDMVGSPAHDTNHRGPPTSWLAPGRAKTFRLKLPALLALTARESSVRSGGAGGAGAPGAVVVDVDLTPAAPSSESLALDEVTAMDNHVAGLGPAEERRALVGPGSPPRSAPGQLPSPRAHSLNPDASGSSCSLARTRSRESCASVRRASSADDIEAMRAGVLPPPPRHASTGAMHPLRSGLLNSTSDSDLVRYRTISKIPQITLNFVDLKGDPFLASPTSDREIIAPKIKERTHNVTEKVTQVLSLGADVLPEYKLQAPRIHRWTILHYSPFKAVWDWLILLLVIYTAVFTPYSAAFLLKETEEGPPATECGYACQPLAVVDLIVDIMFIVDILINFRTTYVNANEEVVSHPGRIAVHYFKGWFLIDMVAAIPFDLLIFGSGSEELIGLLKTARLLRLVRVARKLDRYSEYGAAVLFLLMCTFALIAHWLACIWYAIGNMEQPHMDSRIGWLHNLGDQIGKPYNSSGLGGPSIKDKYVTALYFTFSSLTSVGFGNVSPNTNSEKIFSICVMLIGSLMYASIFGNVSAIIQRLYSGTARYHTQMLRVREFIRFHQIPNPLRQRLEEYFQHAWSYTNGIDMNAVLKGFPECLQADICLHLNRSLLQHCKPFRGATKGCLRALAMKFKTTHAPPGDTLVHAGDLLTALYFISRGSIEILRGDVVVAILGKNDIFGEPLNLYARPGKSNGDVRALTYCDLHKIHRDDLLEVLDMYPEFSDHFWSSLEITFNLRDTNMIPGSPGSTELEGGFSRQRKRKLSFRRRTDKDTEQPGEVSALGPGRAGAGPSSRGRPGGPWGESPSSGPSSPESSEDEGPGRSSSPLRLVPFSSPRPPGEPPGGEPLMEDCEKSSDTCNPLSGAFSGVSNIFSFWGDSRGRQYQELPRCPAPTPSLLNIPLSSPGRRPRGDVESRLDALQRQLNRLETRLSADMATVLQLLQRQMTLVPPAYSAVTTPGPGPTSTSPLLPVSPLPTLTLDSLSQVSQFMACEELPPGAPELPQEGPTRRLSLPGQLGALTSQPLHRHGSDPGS

[18] = molecular target: hERG (KCNH2) (Homo sapiens, UniProt Q12809); experiment: as §1; settings: human
Chain of hERG (KCNH2) (Q12809 whole entry): as above

[19] = Cardiotoxicity in cynomolgus monkey assessed as prolongation of QTc interval time; format: toxicity, Macaca fascicularis
[20] = tested on: NIH3T3; experiment: Phototoxicity in mouse 3T3 cells assessed as decrease in cell viability in presence of UV light by neutral red uptake assay; format: cell-based; settings: NIH3T3, light or radiation study
[21] = Dark toxicity in mouse 3T3 cells assessed as decrease in cell viability by neutral red uptake assay; format: cell-based, NIH3T3
[22] = Volume of distribution at steady state in cynomolgus monkey; format: ADME, Macaca fascicularis; settings: in vivo, read-out: Vdss
[23] = Terminal half life in rat; format: ADME; settings: in vivo, read-out: beta t1/2 (converted)
[24] = Terminal half life in cynomolgus monkey; format: ADME, Macaca fascicularis; settings: in vivo, read-out: beta t1/2 (converted)
[25] = Drug metabolism in human plasma assessed as dealkylated 2-(4-ethyl-6-methylpyrazolo[1,5-a]pyrazin-2-yl)-9-methyl-7-(piperidin-4-yl)-4H-pyrido[1,2-a]pyrimidin-4-one metabolite formation; format: ADME, cell-free
[26] = Drug metabolism in rat plasma assessed as dealkylated 2-(4-ethyl-6-methylpyrazolo[1,5-a]pyrazin-2-yl)-9-methyl-7-(piperidin-4-yl)-4H-pyrido[1,2-a]pyrimidin-4-one metabolite formation; format: ADME, cell-free
[27] = Drug metabolism in dog plasma assessed as dealkylated 2-(4-ethyl-6-methylpyrazolo[1,5-a]pyrazin-2-yl)-9-methyl-7-(piperidin-4-yl)-4H-pyrido[1,2-a]pyrimidin-4-one metabolite formation; format: ADME, cell-free, Canis lupus familiaris
[28] = Drug metabolism in pig plasma assessed as dealkylated 2-(4-ethyl-6-methylpyrazolo[1,5-a]pyrazin-2-yl)-9-methyl-7-(piperidin-4-yl)-4H-pyrido[1,2-a]pyrimidin-4-one metabolite formation; format: ADME, cell-free, Sus scrofa
[29] = Drug metabolism in cynomolgus monkey plasma assessed as dealkylated 2-(4-ethyl-6-methylpyrazolo[1,5-a]pyrazin-2-yl)-9-methyl-7-(piperidin-4-yl)-4H-pyrido[1,2-a]pyrimidin-4-one metabolite formation; format: ADME, cell-free, Macaca fascicularis
[30] = Drug metabolism in mouse plasma assessed as dealkylated 2-(4-ethyl-6-methylpyrazolo[1,5-a]pyrazin-2-yl)-9-methyl-7-(piperidin-4-yl)-4H-pyrido[1,2-a]pyrimidin-4-one metabolite formation; format: ADME, cell-free
[31] = Drug metabolism in rabbit plasma assessed as dealkylated 2-(4-ethyl-6-methylpyrazolo[1,5-a]pyrazin-2-yl)-9-methyl-7-(piperidin-4-yl)-4H-pyrido[1,2-a]pyrimidin-4-one metabolite formation; format: ADME, cell-free, Oryctolagus cuniculus
[32] = Lipophilicity, log D of the compound at pH 7.4; format: physicochemical; settings: buffer
[33] = Clearance in rat at 2 mg/kg, iv administered as single dose; format: ADME, organism-based; settings: in vivo
[34] = Volume of distribution at steady state in rat at 2 mg/kg, iv administered as single dose; format: ADME, organism-based; settings: in vivo, read-out: Vdss
[35] = Half life in rat at 5 mg/kg, po administered as single dose; format: ADME, organism-based; settings: in vivo
[36] = Oral bioavailability in rat at 5 mg/kg administered as single dose; format: ADME, organism-based; settings: in vivo
[37] = Half life in cynomolgus monkey at 1.3 mg/kg, po administered as single dose; format: ADME, organism-based, Macaca fascicularis; settings: in vivo
[38] = Oral bioavailability in cynomolgus monkey at 1.3 mg/kg administered as single dose; format: ADME, organism-based, Macaca fascicularis; settings: in vivo
[39] = tested on: Mus musculus; experiment: In-vivo stabilization of SMN2 mRNA in SMA neonatal delta7 mouse model assessed as increase in free SMN protein levels by measuring free AUC (0 to 42 hrs) at 1 mg/kg, ip dosed once daily starting from postnatal day 3 to postnatal day 9; format: functional
[40] = tested on: Mus musculus; experiment: In-vivo stabilization of SMN2 mRNA in SMA neonatal delta7 mouse model assessed as increase in free SMN protein levels by measuring free AUC (0 to 42 hrs) at 3 mg/kg, ip dosed once daily starting from postnatal day 3 to postnatal day 9; format: functional
[41] = Stabilization of human MADD mRNA splicing expressed in human SMA-derived fibroblasts at 131 to 655 nM by RT-qPCR analysis; format: ADME; settings: 0.655 µM
[42] = Stabilization of human APLP2 mRNA splicing expressed in human SMA-derived fibroblasts at 131 to 655 nM by RT-qPCR analysis; format: ADME; settings: 0.655 µM
[43] = Stabilization of human […] mRNA splicing expressed in human SMA-derived fibroblasts at 131 to 655 nM by RT-qPCR analysis; format: ADME; settings: 0.655 µM
[44] = Stabilization of human STRN3 mRNA splicing expressed in human SMA-derived fibroblasts at 131 to 655 nM by RT-qPCR analysis; format: ADME; settings: 0.655 µM
[45] = Chronic toxicity in retina of po dosed cynomolgus monkey assessed as multifocal peripheral retina degeneration after 39 weeks by OCT analysis; format: organism-based, Macaca fascicularis; settings: in vivo, 6552 h
[46] = Chronic toxicity in retina of po dosed cynomolgus monkey assessed as formation of microcystic spaces in the inner retinal layers after 39 weeks by OCT analysis; format: organism-based, Macaca fascicularis; settings: in vivo, 6552 h
[47] = Chronic toxicity in retina of po dosed cynomolgus monkey assessed as formation of scotopic depressed B-waves after 39 weeks by ERG analysis; format: organism-based, Macaca fascicularis; settings: in vivo, 6552 h
[48] = Chronic toxicity in retina of po dosed cynomolgus monkey assessed as effect on outer nuclear layers after 39 weeks by histological analysis; format: organism-based, Macaca fascicularis; settings: in vivo, 6552 h
[49] = Chronic toxicity in retina of po dosed cynomolgus monkey assessed as effect on photo-receptor layers after 39 weeks by histological analysis; format: organism-based, Macaca fascicularis; settings: in vivo, 6552 h
[50] = Chronic toxicity in retina of po dosed cynomolgus monkey assessed as excess vacuolation of inner nuclear layer after 39 weeks by histological analysis; format: organism-based, Macaca fascicularis; settings: in vivo, 6552 h
[51] = Chronic toxicity in retina of po dosed cynomolgus monkey assessed as RPE hypertrophy 39 weeks by histological analysis; format: organism-based, Macaca fascicularis; settings: in vivo, 6552 h

Compound: CCc1nc(C)cn2nc(-c3cc(=O)n4cc(N5CCN6CCC[C@@H]6C5)ccc4n3)cc12
Vd [1]: 7 L/kg
pKa [2]: 7.6

Compound: CCc1nc(C)cn2cc(-c3cc(=O)n4cc(N5CCC(N6CCC6)CC5)cc(C)c4n3)cc12
Vd [1]: 20 L/kg
pKa [2]: 8.9

Compound: Cc1cn2cc(-c3cc(=O)n4cc(N5CCN(C)CC5)ccc4n3)cc(F)c2n1
Vd [1]: 5 L/kg
pKa [2]: 7.2

Compound: CCc1nc(C)cn2nc(-c3cc(=O)n4cc(N5CCN6CCC[C@]6(C)C5)ccc4n3)cc12
Vd [1]: 15 L/kg
pKa [2]: 8.4

Compound: CCc1nc(C)cn2nc(-c3cc(=O)n4cc(C5CCN(CC)CC5)cc(C)c4n3)cc12
Vd [1]: 20 L/kg
pKa [2]: 9.1

Compound: CCc1nc(C)cn2nc(C3=CC(=O)N4C=C(C5CCNCC5)C=C(C)C4N3)cc12 (stereo unspecified)
EC50 [5]: 23 nM
Drug metabolism [6]: <= 9 %ID
Drug metabolism [7]: <= 9 %ID
efflux ratio [8]: 18.7
Drug metabolism [9]: <= 9 %ID
EC1.5 [3]: < 2 nM
efflux ratio [10]: 20

Compound: CCc1nc(C)cn2nc(-c3cc(=O)n4cc(C5CCN(C)CC5)cc(C)c4n3)cc12
Tmax [11]: 5 to 8 h
half-life [12]: 120 h
EC1.5 [13]: 23 nM
EC50 [14]: 247 nM
EC50 [5]: 352 nM
IC50 ([15]; Homo sapiens): 1850 nM
IC50 ([16]; Macaca fascicularis): 900 nM
IC50 [17]: 1800 nM
IC20 [18]: 500 nM
Time [19]: 10 ms
IC50 [20]: 330 nM
IC50 [21]: > 10000 nM
Vd [22]: 20 to 30 L/kg
half-life [23]: 19 h
half-life [24]: 42 h
Drug metabolism [25]: Metabolite_Detected
Drug metabolism [26]: Metabolite_Detected
Drug metabolism [27]: Metabolite_Detected
Drug metabolism [28]: Metabolite_Detected
Drug metabolism [29]: Metabolite_Detected
Drug metabolism [30]: Metabolite_Detected
Drug metabolism [31]: Metabolite_Detected
efflux ratio [8]: 2
logD [32]: 2.3
clearance [33]: 25 mL/min/kg
Vd [34]: 29 L/kg
half-life [35]: 19 h
bioavailability [36]: 100%
half-life [37]: 42 h
bioavailability [38]: 52%
fAUC [39]: 73 ng·h/mL
fAUC [40]: 118 ng·h/mL
EC1.5 [4]: 87 nM
Activity [41]: Non-Toxic
Activity [42]: Non-Toxic
Activity [43]: Non-Toxic
Activity [44]: Non-Toxic
Activity [45]: Toxic
Activity [46]: Toxic
Activity [47]: Toxic
Activity [48]: Toxic
Activity [49]: Toxic
Activity [50]: Toxic
Activity [51]: Toxic
Vd [1]: 20 to 30 L/kg
pKa [2]: 10.9

Compound: CCc1nc(C)cn2nc(-c3cc(=O)n4cc(N5CCN6CCC[C@H]6C5)ccc4n3)cc12
EC1.5 [3]: 40 nM
EC1.5 [4]: 163 nM

Compound: Cc1cn2nc(-c3cc(=O)n4cc(N5CCN(O)C6(CC6)C5)ccc4n3)cc(C)c2n1
Activity ([15]; human): Non-Toxic
Activity ([16]; cynomolgus monkey): Non-Toxic

Further lines, with some results ahead:

Vd [1]: 4 L/kg
pKa [2]: 7.5
Compound: Cc1nc2c(F)cc(-c3cc(=O)n4cc(N5CCN6CCC[C@H]6C5)ccc4n3)cc2o1

EC1.5 [3]: 2 nM
Compound: Cc1cn2nc(-c3cc(=O)n4cc(N5CCN6CCC[C@H]6C5)ccc4n3)cc(C)c2n1
EC1.5 [4]: 22 nM

Vd [1]: 18 L/kg
pKa [2]: 9.3
Compound: Cc1cn2cc(-c3cc(=O)n4cc(N5CCC(N6CCCC6)CC5)ccc4n3)cc(C(F)(F)F)c2n1

EC1.5 [3]: 3 nM
Compound: Cc1cn2nc(-c3cc(=O)n4cc(N5CCN6CCC[C@H]6C5)ccc4n3)ccc2n1
EC1.5 [4]: 20 nM

Vd [1]: 15 L/kg
pKa [2]: 8.6
Compound: Cc1cn2cc(-c3cc(=O)n4cc(N5CCN6CCC[C@H]6C5)ccc4n3)cc(C)c2n1

Vd [1]: 7 L/kg
pKa [2]: 7.3
Compound: Cc1cn2cc(-c3cc(=O)n4cc(N5CCN6CCC[C@H]6C5)ccc4n3)cc(C(F)(F)F)c2n1

Vd [1]: 9 L/kg
pKa [2]: 8.4
Compound: Cc1cn2cc(-c3cc(=O)n4cc(N5CCN6CCC[C@@]6(C)C5)ccc4n3)cc(C(F)(F)F)c2n1
